According to PubChem BioAssay AID2060607 (Molecular Pharmacology Branch, DTP, NCI, 2025):
Values joined by “and” are separate entries in the source; they are usually repeats but may differ in a detail not shown here. Equal entries are not always repeated. One block for each compound: values may come before it.

Tested on: 876862-298-R-J1-PDC complex spheroids, viability % test/control
Experiment: Anticancer human tumor 876862-298-R-J1-PDC patient-derived endometrial carcinoma cell line growth inhibition [CLK]
Conditions: for viability, T/C: stronger effect = lower value
From the text: A high-throughput screen of multi-cell type tumor spheroids was designed to identify active combinations of […] and targeted small molecules. Complex spheroids include a stromal component modeled by human endothelial cells (HUVEC) and fibroblasts modeled by human mesenchymal stem cells (MSCs). The concentration ranges selected for each drug and investigational agent were based upon clinically achievable concentrations if the clinical Cmax of the agent was known.
Compounds. The drugs and investigational agents: cirtuvivint (SM08502; NSC835563), CC-671 (NSC850746), vemurafenib (NSC761431), tapotoclax (NSC804041), sotorasib (NSC818433), adagrasib (NSC831453), MRTX-1133 (NSC836407), BAY2416964 (NSC825713), copanlisib (NSC816437), inavolisib (NSC800729), abemaciclib (NSC768073), osimertinib (NSC779217), entinostat (NSC756642), eltanexor (KPT-8602, NSC794443), venetoclax (NSC766270), ceralasertib (NSC777638), bortezomib (NSC756655), olaparib (NSC753686), talazoparib (NSC767125), alisertib (NSC759677), peposertib (NSC802822), gemcitabine (NSC613327), 5-fluorouracil (NSC19893), SN-38 (NSC673596), oxaliplatin (NSC266046), paclitaxel (NSC125973), and doxorubicin (NSC123127), were obtained from the National Cancer Institute (NCI) Developmental Therapeutics Program Chemical Repository. The FDA-approved anticancer drug set is available from the Developmental Therapeutics Program at https://dtp.cancer.gov/organization/dscb/obtaining/available plates.htm. […] The stock solutions were prepared in dimethyl sulfoxide (DMSO, Sigma-Aldrich, St. Louis, MO, cat. D2650), except for the platinum complexes which were prepared in saline (Quality Biological, Gaithersburg, MD, cat. 114-055-101), at 800-fold the tested concentration and stored at -70 degrees C prior to their use. All drugs and investigational agents were tested over a range starting from a high concentration at or near the clinical Cmax and decreasing in half-log increments. If the clinical Cmax for an agent had not been determined, the highest concentration tested was 10 microM.
Cell Culture. All cells were maintained in an incubator at 37 degrees C and 5% CO2 with 95% humidity. The PDC lines were cultured according to standard operating procedures established by the NCI PDMR. Briefly, all PDCs were thawed and cultured in Matrigel-coated flasks prepared with a working solution of 1X Ham's F-12 nutrient mix, without supplementation (Invitrogen, Waltham, MA, cat. 11765054), 100 U/mL penicillin-streptomycin (Invitrogen, cat. 15140122), and 2.5% Matrigel (Corning Inc., Corning, NY, cat. 354248) for the first three passages. The 947758-054-R-J2-PDC line was cultured in 6B/Colon 1A media, which includes advanced DMEM/F-12 (Thermo Fisher Scientific, cat. 12634028), 10 mM HEPES (Thermo Fisher Scientific, cat. 15630080), 1X GlutaMAX supplement (Thermo Fisher Scientific, cat. 35050061), 0.1 mg/mL primocin (InvivoGen, cat. ant-pm-2), 10% defined fetal bovine serum, heat inactivated (HyClone Laboratories Inc., cat. SH30070.03HI), 1.25 mM N-Acetyl-L-cysteine (Sigma-Aldrich, cat. A9165), 10 mM nicotinamide (Sigma-Aldrich, cat. N0636), 1X B-27 supplement (Thermo Fisher Scientific, cat. 17504044), 1X N-2 supplement (Thermo Fisher Scientific, cat. 17502048), and 10 microM Y-27632 dihydrochloride (Tocris Bioscience, cat. 1254). The 876862-298-R-J1-PDC was cultured in 6E media, which includes all 6B/Colon 1A media components plus 50% L-WRN conditioned media (ATCC, cat. CRL-3276), 50 ng/mL recombinant human EGF recombinant protein (hEGF; Thermo Fisher Scientific, cat. PHG0311), 10 ng/mL recombinant human fibroblast growth factor 10 (hGFG-10; PeproTech, cat. 100-26), 1 ng/mL recombinant human fibroblast growth factor 2 (hFGF-2; PeproTech, cat. 100-18B), and 1 µM prostaglandin E2 (PGE2; Tocris, cat. 2296). The 227483-062-R1-J1-PDC line was cultured in Panc media, containing all 6E components except hFGF-2, with the addition of 500 nM SB-431542 (Selleckchem, cat. S1067) and 10 nM gastrin (Tocris, cat. 3006). […]
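Note: spheroids exposed to drugs for 7 days before readout.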
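Throughout, for viability, T/C: 100% = DMSO vehicle control wells.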

- IC50 (curve of compound): < 31.6 nM
SMILES: CC(=O)O[C@H]1C(=O)[C@@]2(C)[C@H]([C@H](OC(=O)c3ccccc3)[C@]3(O)C[C@H](OC(=O)[C@H](O)[C@@H](NC(=O)c4ccccc4)c4ccccc4)C(C)=C1C3(C)C)[C@]1(OC(C)=O)CO[C@@H]1C[C@@H]2O
- viability, T/C (compound 0.0316 µM): 25.9% and 26.5%
- viability, T/C (compound 0.1 µM): 23.7% and 22.9%
- viability, T/C (compound 0.316 µM): 23% and 20%
- viability, T/C (compound 1 µM): 25.4% and 25.1%
- viability, T/C (compound 3.16 µM): 29.2% and 23.1%
- viability, T/C (compound 10 µM): 32.2% and 26.1%

- IC50 (curve of compound): 9980 nM and 5390 nM
SMILES: COc1ccc([C@@H](O)c2cc(-c3ncnc4cc(N5CCOCC5)ccc34)c(F)cc2Cl)nn1
- viability, T/C (compound 0.0316 µM): 109% and 103%
- viability, T/C (compound 0.1 µM): 88.9% and 106%
- viability, T/C (compound 0.316 µM): 108% and 101%
- viability, T/C (compound 1 µM): 98.5% and 89.7%
- viability, T/C (compound 3.16 µM): 73.1% and 69%
- viability, T/C (compound 10 µM): 49.9% and 28.5%

- IC50 (curve of compound): < 31.6 nM
SMILES: COc1cccc2c1C(=O)c1c(O)c3c(c(O)c1C2=O)CC(O)(C(=O)CO)CC3OC1CC(N)C(O)C(C)O1 (stereo not drawn)
- viability, T/C (compound 0.0316 µM): 41.8% and 33.2%
- viability, T/C (compound 0.1 µM): 16.9% and 13.5%
- viability, T/C (compound 0.316 µM): 7.66% and 6.87%
- viability, T/C (compound 1 µM): 7.07% and 7.16%
- viability, T/C (compound 3.16 µM): 0.89% and 0.78%
- viability, T/C (compound 10 µM): 4.03% and 4%

SMILES: C=CC(=O)N1CCN(c2nc(=O)n(-c3c(C)ccnc3C(C)C)c3nc(-c4c(O)cccc4F)c(F)cc23)C(C)C1 (stereo not drawn) + CN1CCN(c2cc(C(=O)Nc3cc4cc(-c5cnn(C)c5)ccc4cn3)ccn2)CC1
- IC50 (curve of first compound, second compound 0.0316 µM): > 10000 nM
- IC50 (curve of first compound, second compound 0.1 µM): 1720 nM
- IC50 (curve of first compound, second compound 0.316 µM): < 31.6 nM
- IC50 (curve of first compound, second compound 1 µM): < 31.6 nM
- IC50 (curve of first compound, second compound 3.16 µM): < 31.6 nM
- IC50 (curve of first compound, second compound 10 µM): < 31.6 nM
- viability, T/C (second compound 0.0316 µM, first compound 0.0316 µM): 80.7%
- viability, T/C (second compound 0.0316 µM, first compound 0.1 µM): 90.6%
- viability, T/C (second compound 0.0316 µM, first compound 0.316 µM): 91%
- viability, T/C (second compound 0.0316 µM, first compound 1 µM): 96.3%
- viability, T/C (second compound 0.0316 µM, first compound 3.16 µM): 99%
- viability, T/C (second compound 0.0316 µM, first compound 10 µM): 58.4%
- viability, T/C (second compound 0.1 µM, first compound 0.0316 µM): 57.9%
- viability, T/C (second compound 0.1 µM, first compound 0.1 µM): 47.9%
- viability, T/C (second compound 0.1 µM, first compound 0.316 µM): 49.9%
- viability, T/C (second compound 0.1 µM, first compound 1 µM): 57.7%
- viability, T/C (second compound 0.1 µM, first compound 3.16 µM): 45.7%
- viability, T/C (second compound 0.1 µM, first compound 10 µM): 30.3%
- viability, T/C (second compound 0.316 µM, first compound 0.0316 µM): 5.51%
- viability, T/C (second compound 0.316 µM, first compound 0.1 µM): 4.35%
- viability, T/C (second compound 0.316 µM, first compound 0.316 µM): 4.39%
- viability, T/C (second compound 0.316 µM, first compound 1 µM): 4.13%
- viability, T/C (second compound 0.316 µM, first compound 3.16 µM): 4.65%
- viability, T/C (second compound 0.316 µM, first compound 10 µM): 2.26%
- viability, T/C (second compound 1 µM, first compound 0.0316 µM): 0.86%
- viability, T/C (second compound 1 µM, first compound 0.1 µM): 1.32%
- viability, T/C (second compound 1 µM, first compound 0.316 µM): 1.28%
- viability, T/C (second compound 1 µM, first compound 1 µM): 2.28%
- viability, T/C (second compound 1 µM, first compound 3.16 µM): 4.17%
- viability, T/C (second compound 1 µM, first compound 10 µM): 2.16%
- viability, T/C (second compound 3.16 µM, first compound 0.0316 µM): 1.53%
- viability, T/C (second compound 3.16 µM, first compound 0.1 µM): 2.07%
- viability, T/C (second compound 3.16 µM, first compound 0.316 µM): 2.2%
- viability, T/C (second compound 3.16 µM, first compound 1 µM): 2.58%
- viability, T/C (second compound 3.16 µM, first compound 3.16 µM): 3.3%
- viability, T/C (second compound 3.16 µM, first compound 10 µM): 2.74%
- viability, T/C (second compound 10 µM, first compound 0.0316 µM): 0.76%
- viability, T/C (second compound 10 µM, first compound 0.1 µM): 1.59%
- viability, T/C (second compound 10 µM, first compound 0.316 µM): 1.62%
- viability, T/C (second compound 10 µM, first compound 1 µM): 2.38%
- viability, T/C (second compound 10 µM, first compound 3.16 µM): 2.32%
- viability, T/C (second compound 10 µM, first compound 10 µM): 2.42%
